According to patent publication US8269000B2, “Substituted pyrimidine and triazine compounds” (Gruenenthal GmbH, priority 2008, dated 2012):

biological target: T1, rat B1R (Rattus norvegicus, UniProt P97583); experiment: FLIPR Ca2+ functional study on bradykinin receptor 1 (rB1R CHO K1 cells); assay type: cell-based; conditions: % inhibition rat B1R at 10 μM
T1 construct: expressed in transfected cells; host or cells: CHO K1 cells
T1 sequence (P97583 1-337): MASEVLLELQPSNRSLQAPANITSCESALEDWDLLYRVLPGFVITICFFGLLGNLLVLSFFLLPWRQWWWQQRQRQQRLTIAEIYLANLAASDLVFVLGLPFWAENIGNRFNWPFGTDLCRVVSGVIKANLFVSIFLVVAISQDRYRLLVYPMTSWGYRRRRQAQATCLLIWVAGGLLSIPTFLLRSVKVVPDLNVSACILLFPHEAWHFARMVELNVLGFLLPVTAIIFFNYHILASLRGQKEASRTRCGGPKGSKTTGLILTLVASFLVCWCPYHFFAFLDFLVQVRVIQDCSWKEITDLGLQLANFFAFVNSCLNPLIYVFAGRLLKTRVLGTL
Method in brief: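 Antagonism was calculated as % of maximal inhibition of the Ca2+ rise triggered by agonist at EC80 (Lys-Des-Arg9-bradykinin for hB1R, Des-Arg9-bradykinin for rB1R), added 10-20 min after test compound (10 μM or serial dilutions for IC50) to Fluo-4-loaded transfected CHO K1 cells on FLIPR. Duplicates or triplicates, ≥2 independent runs.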

| % inh. (rat B1R) 10 μM [%] | SMILES |
| --- | --- |
| 63 | COc1cc(C)c(S(=O)(=O)N2CCC[C@H]2COc2ccnc(N3CCC(c4nc(-c5ccncc5)no4)CC3)n2)c(C)c1 [H_CC-048] |
| 53 | COc1cc(C)c(S(=O)(=O)N2CC(Oc3ccnc(N(C)CCN4CCC(c5ccccc5)(N5CCCC5)CC4)n3)C2)c(C)c1 [H_CC-070] |

same assay, conditions: CHO-K1, % inhibition rat B1R at 10 μM, read-out: % inh. (rat B1R) 10 μM

| SMILES | inhibition at 10 µM [%] |
| --- | --- |
| COc1cc(C)c(S(=O)(=O)N2CCC[C@H]2COc2ccnc(N(C)CCCN3CCC(c4ccccc4)(N(C)C)CC3)n2)c(C)c1 [H_CC-046, 3-(4-dimethylamino-4-phenyl-piperidin-1-yl)-propyl-[4-[[(2S)-1-[(4-methoxy-2,6-dimethyl-phenyl)sulfonyl]-pyrrolidin-2-yl]-methoxy]-pyrimidin-2-yl]-methyl-amine] | 89 |
| COc1cc(C)c(S(=O)(=O)N2CCC[C@H]2COc2ccnc(N3CCC(O)(c4ccccn4)CC3)n2)c(C)c1 [H_CC-047, 1-[4-[[(2S)-1-[(4-methoxy-2,6-dimethyl-phenyl)sulfonyl]-pyrrolidin-2-yl]-methoxy]-pyrimidin-2-yl]-4-pyridin-2-yl-piperidin-4-ol] | 85 |
| COc1cc(C)c(S(=O)(=O)N2CCCCC2COc2ccnc(N(C)CCN3CCC(Oc4ccncc4)CC3)n2)c(C)c1 (stereo not shown) [H_CC-049, [4-[[1-[(4-methoxy-2,6-dimethyl-phenyl)sulfonyl]-piperidin-2-yl]-methoxy]-pyrimidin-2-yl]-methyl-[2-(4-pyridin-4-yloxy-piperidin-1-yl)-ethyl]amine] | 94 |
| COc1cc(C)c(S(=O)(=O)N2CCCCC2COc2ccnc(N3[C@@H]4CC[C@H]3CC(Oc3ccncc3)C4)n2)c(C)c1 (stereo partly drawn) [H_CC-050, (1S,5R)-8-[4-[[1-[(4-methoxy-2,6-dimethyl-phenyl)sulfonyl]-piperidin-2-yl]-methoxy]-pyrimidin-2-yl]-3-pyridin-4-yloxy-8-azabicyclo[3.2.1]octane] | 74 |
| COc1cc(C)c(S(=O)(=O)N2CCC[C@H]2COc2ccnc(N(C)CCN3CCC(Oc4ccncc4)CC3)n2)c(C)c1 [H_CC-051, [4-[[(2S)-1-[(4-methoxy-2,6-dimethyl-phenyl)sulfonyl]-pyrrolidin-2-yl]-methoxy]-pyrimidin-2-yl]-methyl-[2-(4-pyridin-4-yloxy-piperidin-1-yl)-ethyl]amine] | 99 |
| COc1cc(C)c(S(=O)(=O)N2CCC[C@H]2COc2ccnc(N(C)CCN3CCC(c4ccccc4)(N(C)C)CC3)n2)c(C)c1 [H_CC-054, 2-(4-dimethylamino-4-phenyl-piperidin-1-yl)-ethyl-[4-[[(2S)-1-[(4-methoxy-2,6-dimethyl-phenyl)sulfonyl]-pyrrolidin-2-yl]-methoxy]-pyrimidin-2-yl]-methyl-amine] | 83 |
| COc1cc(C)c(S(=O)(=O)N2CCC[C@H]2COc2ccnc(N(C)CCN3CCC(c4ccccc4)(N4CCCC4)CC3)n2)c(C)c1 [H_CC-055, [4-[[(2S)-1-[(4-methoxy-2,6-dimethyl-phenyl)sulfonyl]-pyrrolidin-2-yl]-methoxy]-pyrimidin-2-yl]-methyl-[2-(4-phenyl-4-pyrrolidin-1-yl-piperidin-1-yl)-ethyl]-amine] | 92 |
| COc1cc(C)c(S(=O)(=O)N2c3ccccc3C[C@H]2COc2ccnc(N(C)CCN3CCC(c4ccccc4)(N(C)C)CC3)n2)c(C)c1 [H_CC-057, 2-(4-dimethylamino-4-phenyl-piperidin-1-yl)-ethyl-[4-[[(2S)-1-[(4-methoxy-2,6-dimethyl-phenyl)sulfonyl]-2,3-dihydro-1H-indol-2-yl]-methoxy]-pyrimidin-2-yl]-methyl-amine] | 98 |
| COc1cc(C)c(S(=O)(=O)N2CCCCC2COc2ccnc(N(C)CCCN3CCC(c4ccccc4)(N(C)C)CC3)n2)c(C)c1 (stereo not shown) [H_CC-061, 3-(4-dimethylamino-4-phenyl-piperidin-1-yl)-propyl-[4-[[1-[(4-methoxy-2,6-dimethyl-phenyl)sulfonyl]-piperidin-2-yl]-methoxy]-pyrimidin-2-yl]-methyl-amine] | 105 |
| COc1cc(C)c(S(=O)(=O)N2CCCCC2COc2ccnc(N(C)CCN3CCC(c4ccccc4)(N4CCCC4)CC3)n2)c(C)c1 (stereo not shown) [H_CC-063, [4-[[1-[(4-methoxy-2,6-dimethyl-phenyl)sulfonyl]-piperidin-2-yl]-methoxy]-pyrimidin-2-yl]-methyl-[2-(4-phenyl-4-pyrrolidin-1-yl-piperidin-1-yl)-ethyl]-amine] | 82 |
| COc1cc(C)c(S(=O)(=O)N2CCCC(Oc3ccnc(N4CCC(c5ccccc5)(N(C)C)CC4)n3)C2)c(C)c1 (stereo not shown) [H_CC-064, [1-[4-[1-[(4-methoxy-2,6-dimethyl-phenyl)sulfonyl]-piperidin-3-yl]oxy-pyrimidin-2-yl]-4-phenyl-piperidin-4-yl]-dimethyl-amine] | 61 |
| COc1cc(C)c(S(=O)(=O)N2CCCC(Oc3ccnc(N(C)CCN4CCC(c5ccccc5)(N(C)C)CC4)n3)C2)c(C)c1 (stereo not shown) [H_CC-065, 2-(4-dimethylamino-4-phenyl-piperidin-1-yl)-ethyl-[4-[1-[(4-methoxy-2,6-dimethyl-phenyl)sulfonyl]-piperidin-3-yl]oxy-pyrimidin-2-yl]-methyl-amine] | 52 |
| COc1cc(C)c(S(=O)(=O)N2CCCC(Oc3ccnc(N(C)CCN4CCC(c5ccccc5)(N5CCCC5)CC4)n3)C2)c(C)c1 (stereo not shown) [H_CC-066, [4-[1-[(4-methoxy-2,6-dimethyl-phenyl)sulfonyl]-piperidin-3-yl]oxy-pyrimidin-2-yl]-methyl-[2-(4-phenyl-4-pyrrolidin-1-yl-piperidin-1-yl)-ethyl]amine] | 56 |
| COc1cc(C)c(S(=O)(=O)N2CC(Oc3ccnc(N(C)CCN4CCC(c5ccccc5)(N(C)C)CC4)n3)C2)c(C)c1 [H_CC-069, 2-(4-dimethylamino-4-phenyl-piperidin-1-yl)-ethyl-[4-[1-[(4-methoxy-2,6-dimethyl-phenyl)sulfonyl]-azetidin-3-yl]oxy-pyrimidin-2-yl]-methyl-amine] | 52 |

Now from value to compound:

| inhibition at 10 µM [%] | SMILES |
| --- | --- |
| 95 | CCCCC1(N(C)C)CCN(CCN(C)c2nccc(OC3CCCN(S(=O)(=O)c4c(C)cc(OC)cc4C)C3)n2)CC1 (stereo not shown) [H_CC-053, 2-(4-butyl-4-dimethylamino-piperidin-1-yl)-ethyl-[4-[1-[(4-methoxy-2,6-dimethyl-phenyl)sulfonyl]-piperidin-3-yl]oxy-pyrimidin-2-yl]-methyl-amine] |
| 98 | CCCCC1(N(C)C)CCN(CCN(C)c2nccc(OC[C@@H]3CCCN3S(=O)(=O)c3c(C)cc(OC)cc3C)n2)CC1 [H_CC-056, 2-(4-butyl-4-dimethylamino-piperidin-1-yl)-ethyl-[4-[[(2S)-1-[(4-methoxy-2,6-dimethyl-phenyl)sulfonyl]-pyrrolidin-2-yl]-methoxy]-pyrimidin-2-yl]-methyl-amine] |
| 97 | CCCCC1(N(C)C)CCN(CCN(C)c2nccc(OC[C@@H]3Cc4ccccc4N3S(=O)(=O)c3c(C)cc(OC)cc3C)n2)CC1 [H_CC-058, 2-(4-butyl-4-dimethylamino-piperidin-1-yl)-ethyl-[4-[[(2S)-1-[(4-methoxy-2,6-dimethyl-phenyl)sulfonyl]-2,3-dihydro-1H-indol-2-yl]-methoxy]-pyrimidin-2-yl]-methyl-amine] |
| 91 | COc1cc(C)c(S(=O)(=O)N(C)CCOc2ccnc(N(C)CCN3CCC(c4ccccc4)(N4CCCC4)CC3)n2)c(C)c1 [H_CC-059, 4-methoxy-N,2,6-trimethyl-N-[2-[2-[methyl-[2-(4-phenyl-4-pyrrolidin-1-yl-piperidin-1-yl)-ethyl]-amino]-pyrimidin-4-yl]oxy-ethyl]-benzenesulfonic acid amide] |
| 102 | CCCCC1(N(C)C)CCN(CCN(C)c2nccc(OCCN(C)S(=O)(=O)c3c(C)cc(OC)cc3C)n2)CC1 [H_CC-060, N-[2-[2-[2-(4-butyl-4-dimethylamino-piperidin-1-yl)-ethyl-methyl-amino]pyrimidin-4-yl]oxy-ethyl]-4-methoxy-N,2,6-trimethyl-benzenesulfonic acid amide] |
| 73 | CCCCC1(N(C)C)CCN(c2nccc(OCC3CCCCN3S(=O)(=O)c3c(C)cc(OC)cc3C)n2)CC1 (stereo not shown) [H_CC-062, [4-butyl-1-[4-[[1-[(4-methoxy-2,6-dimethyl-phenyl)sulfonyl]-piperidin-2-yl]-methoxy]-pyrimidin-2-yl]-piperidin-4-yl]-dimethyl-amine] |
| 59 | COc1cc(C)c(S(=O)(=O)N(C)CCOc2ccnc(N(C)CCN3CCC(c4ccccc4)(N(C)C)CC3)n2)c(C)c1 [H_CC-067, N-[2-[2-[2-(4-dimethylamino-4-phenyl-piperidin-1-yl)-ethyl-methyl-amino]-pyrimidin-4-yl]oxy-ethyl]-4-methoxy-N,2,6-trimethyl-benzenesulfonic acid amide] |
| 65 | CCCCC1(N(C)C)CCN(c2nccc(OC[C@@H]3CCCN3S(=O)(=O)c3c(C)cc(OC)cc3C)n2)CC1 [H_CC-068, [4-butyl-1-[4-[[(2S)-1-[(4-methoxy-2,6-dimethyl-phenyl)sulfonyl]-pyrrolidin-2-yl]-methoxy]-pyrimidin-2-yl]-piperidin-4-yl]-dimethyl-amine] |
| 55 | CCCCC1(N(C)C)CCN(CCN(C)c2nccc(OC3CN(S(=O)(=O)c4c(C)cc(OC)cc4C)C3)n2)CC1 [H_CC-071, 2-(4-butyl-4-dimethylamino-piperidin-1-yl)-ethyl-[4-[1-[(4-methoxy-2,6-dimethyl-phenyl)sulfonyl]-azetidin-3-yl]oxy-pyrimidin-2-yl]-methyl-amine] |
